From patent publication US20060166310A1, “Serotonin receptor” (Inpharmatica Ltd., priority 2002, published 2006)
One block for each compound: values may come before it.

How the values were obtained:
INPIONCH1 = molecular target: T1, INPIONCH1 (Homo sapiens, UniProt Q401N2); test: Whole cell patch-clamp of HEK293 cells transfected with INPIONCH1; assay type: cell-based; settings: for activation of current on application: cells transfected with INPIONCH1
T1 construct: V5 (C); His (C); expressed in transfected cells; host or cells: HEK293
T1 sequence (Q401N2 2-412): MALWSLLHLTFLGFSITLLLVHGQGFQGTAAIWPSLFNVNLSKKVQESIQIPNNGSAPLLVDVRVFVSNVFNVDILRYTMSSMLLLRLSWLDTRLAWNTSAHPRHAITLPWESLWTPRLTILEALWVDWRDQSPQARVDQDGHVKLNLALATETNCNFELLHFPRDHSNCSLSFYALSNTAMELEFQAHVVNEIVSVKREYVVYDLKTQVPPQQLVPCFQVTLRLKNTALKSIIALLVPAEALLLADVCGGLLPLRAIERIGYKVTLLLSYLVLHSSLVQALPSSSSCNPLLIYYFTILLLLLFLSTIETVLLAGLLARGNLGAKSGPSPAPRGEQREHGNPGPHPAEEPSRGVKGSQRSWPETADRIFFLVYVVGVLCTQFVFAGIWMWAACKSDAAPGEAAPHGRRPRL
Source text: Cells were clamped at −80 mV or −60 mV. Drugs were applied by pressure ejection from modified micropipettes.

HEK293 cells = settings: 1 mM
Method: To overcome these difficulties, HEK293 cells were transfected with either INPIONCH1 or one of the two chimeras (IS67 or IS68) and subsequently placed under selection pressure. Following transfection, positively expressing cells were selected by treatment with 1 mM neomycin and only cells that grew under these conditions were used to determine the electrophysiological characteristics of the various expressed clones.

current on application of 5-HT (INPIONCH1; 10 μM, HEK293 cells expressing INPIONCH1): inward current | reversal potential of 5-HT-induced current (INPIONCH1; voltage ramps -90 to +90 mV before and after 5-HT application): about 0 mV | induction of currents before and after application of zinc sulphate (INPIONCH1; zinc sulphate 1 mM): able to induce currents
SMILES: NCCc1c[nH]c2ccc(O)cc12 [5-HT, serotonin]
response following a second application (desensitisation) (INPIONCH1; second application of 5-HT, stated for 'the channels'): minimal or absent

SMILES: O=S(=O)([O-])[O-].[Zn+2] [zinc sulphate]
zinc activated current (INPIONCH1; zinc sulphate application): no consistent specific zinc activated current was observed | effect on amplitude of the current in response to 5-HT (INPIONCH1; zinc sulphate applied to the cells): appeared to reduce the amplitude | toxicity to the cells (HEK293 cells): appeared to be toxic

SMILES: CC(=O)OCC[N+](C)(C)C [acteylcholine]
activation of current on application (INPIONCH1): appeared not to activate current

effect on the 5-HT induced channel (INPIONCH1): no effect | effect on the leak channel (INPIONCH1): no effect
SMILES: COc1cc2c3cc1Oc1cc(ccc1O)C[C@@H]1c4c(cc(OC)c(O)c4Oc4ccc(cc4)C[C@@H]3N(C)CC2)CC[N+]1(C)C [Tubocurarine]

activation of current on application (INPIONCH1): appeared not to activate current
SMILES: NC[C@H](O)c1ccc(O)c(O)c1 [noradrenaline]

SMILES: CN1CCCC1c1cccnc1 (stereo not shown) [nicotine]
activation of current on application (INPIONCH1): appeared not to activate current | effect on outward current recorded at positive potentials (INPIONCH1; in some cells): appeared to block outward current
